Usually IC50 stands for the concentration at which inhibition is half-maximal. The ED50 is the dose at which the effect has come halfway, by size or by number of responders. A low value points to an effect at a small dose. What is called LD50 is the dose expected to kill half of the subjects tested. Low readings indicate greater toxicity, high ones lower toxicity.

“Also recorded” adds a separate entry of the source. Read-outs that look alike come from different tables or passages of the source. Some results are limits rather than exact numbers.

These results are taken from patent publication US6750244B2, “Compounds active at a novel site on receptor-operated calcium channels useful for treatment of neurological disorders and diseases” (NPS Pharmaceuticals, Inc., priority 1993, dated 2004).

The subject of data set [1] is NMDA receptor. Conditions: rat hippocampal slices. Here is the method: Glutamate-mediated transmission at synapses of Schaffer collateral fibers and CA1 pyramidal cells was measured in slices of rat brain containing the hippocampus. This assay measures electrophysiologically the postsynaptic depolarization caused by the presynaptic release of glutamate, and can readily distinguish synaptic transmission mediated by NMDA or AMPA receptors.

In a further data set the test system is PBQ-elicited writhing. It counts as in vivo. As to conditions: 16 mg/kg i.p. Here is the method:
In the first series of experiments, the animals were administered an unpleasant stimulus (2-phenyl-1,4-benzoquinone, PBQ) which elicits a writhing response (abdominal stretching). Typically, the number of writhes occurring in a 5 min observation period is recorded. […] Nonsteroidal antiinflammatory agents are likewise effective in this model.

In data set [2] the test system is PCP-like discriminative stimulus effects. Format: in vivo, rats. Conditions: i.p., rats. From the text:
In this assay, rats who have been trained to lever press for food reinforcement must select which of two levers in their cages is correct. The only stimulus they hive for selecting the correct lever is their ability to detect whether they received a PCP or vehicle injection After about two months of training, rats become very good at discriminating PCP from vehicle injections and can then be tested with other drugs to determine if they are discriminated as PCP. When tested in this procedure, other drugs which are known to produce a PCP-like intoxication substitute for PCP. These drugs include various PCP analogs such as ketamine and the noncompetitive NMDA receptor antagonist, MK-801.

In data set [3] the test system is central muscarinic cholinergic receptor. Format: binding, rat.
Data set [4] relates to delayed rectifier potassium channel. As to the kind of experiment: Inhibition of delayed rectifier potassium channel in cultured N1E-115 neuroblastoma cells. Conditions: read-out: Delayed rectifier potassium channel: estimated IC50. Format: cell-based.
The test system of data set [5] is thermal nociception. Format: in vivo, mice. As to conditions: 16 mg/kg i.p.
A short description of the next data set: in vivo. Conditions: mouse, in vivo, ip. Here is the method: (§1) In this assay, Frings and CF1 mice were injected with test compound and placed on a knurled rod which rotated at a speed of 6 rpm. The ability of the mice to maintain equilibrium for long periods of time was determined; those mice that were unable to maintain equilibrium on the rotorod for 1 min in each of 3 trials were considered impaired.

For data set [6], the system named is motor performance. As to the kind of experiment: Acute motor impairment (rotorod) in mice. On the procedure:
as §1

The target in data set [7] is NMDA receptor-ionophore complex (site labeled by [3H]MK-801). Kind of data set: Inhibition of [3H]MK-801 binding in rat cortical/hippocampal washed membrane preparations. As to conditions: read-out: IC50 (μM) vs. [3H]MK-801; rat cortical/hippocampal washed membranes.
Data set [8] has as its system mean arterial blood pressure. As to conditions: for no significant cardiovascular activity in anesthetized rats at doses up to: i.v.
Data set [9] has as its system NMDA receptor. As to the kind of experiment: Inhibition of NMDA/glycine-induced increases in intracellular calcium in cultured rat cerebellar granule cells (RCGC). It counts as cell-based. As to conditions: NMDA/glycine-induced increases in intracellular calcium, cultured rat cerebellar granule cells; read-out: IC50 (μM) vs. NMDA.
The subject of data set [10] is maximal electroshock-induced seizures. As to the kind of experiment: Maximal electroshock-induced seizures in mice. It counts as in vivo. As to conditions: Mus musculus, mice. (In general: Protection in the maximal electroshock model is a classic sign of anticonvulsant action.)
The next data set deals with T1, L-type calcium channel.
T1 construct: L-type calcium channel: estimated IC50, KCl depolarization-induced increases in intracellular calcium; other: cultured
Kind of data set: Inhibition of KCl depolarization-induced increases in intracellular calcium in cultured rat cerebellar granule cells. It counts as cell-based. Conditions: cultured rat cerebellar granule cells; read-out: L-type calcium channel: estimated IC50, KCl depolarization-induced increases in intracellular calcium. The source says: The ability of arylalkylamines to inhibit dihydropyridine-sensitive Ca^2+ channels was examined in cerebellar granule cells and a rat aortic smooth muscle cell line, A7r5 cells.

The next data set relates to induction of LTP. Details: species or system rat. As to conditions: at 100 μM.
Data set [11] deals with PCP-like stereotypic behavior. As to the kind of experiment: PCP-like stereotypic behavior (hyperexcitability and head weaving) in rats. As to conditions: 30 mg/kg i.p.
Text: We investigated whether the arylalkylamines would elicit such behaviors.
The test system of another data set is sound-induced seizures. As to the kind of experiment: Sound-induced seizures in Frings mice (reflex epilepsy). Format: in vivo. As to conditions: Mus musculus, Frings mice.
Data set [12] in a line: Lethality (LD50) after oral administration in Frings mice. As to conditions: mouse, in vivo.
Data set [13] deals with behavior. Kind of data set: Behavioral effects in conscious beagle dogs.
Data set [14] concerns mean arterial pressure, heart rate, ECG. As to the kind of experiment: Cardiovascular activity in conscious beagle dogs.
In data set [15] the test system is motor performance. As to the kind of experiment: Motor toxicity (TD50) in rats. Conditions: rats, oral, 25 mg/kg.
Data set [16] addresses T2, norepinephrine uptake site (Rattus norvegicus, UniProt Q63380).
T2 construct: from tissue; host or cells: rat cortical membranes (per the assay title)
As to the kind of experiment: Norepinephrine uptake binding assay: [3H]desipramine binding to rat cortical membranes.

Data set [17] concerns behavior. As to the kind of experiment: Behavioral effects in conscious male NMRI mice.
In data set [18] the test system is thermal nociception. It counts as in vivo, rats. Conditions: 25 mg/kg i.p. Here is the method:
In these experiments, a 52° C. hot plate was used as the nociceptive stimulus.

The next data set relates to chronic neuropathic pain. Kind of data set: Rat model of chronic neuropathic pain. It counts as in vivo, rats.
For data set [19], the system named is thermal nociception. It counts as in vivo, rats. Conditions: 25 mg/kg i.p. On the procedure: In this standard assay, the thermal nociceptive stimulus was 52° C. warm water with the latency to tail flick or withdrawal taken as the endpoint.
The source holds these as a separate data set.

Another data set relates to focal ischemic stroke. As to the kind of experiment: Rat model of focal ischemic stroke (vessel occlusion). It counts as in vivo, rats. Conditions: i.p. 2 mg/kg 30 min prior to vessel occlusion and 2 mg/kg 3 hr post-occlusion.
For a further data set, the target named is T3, serotonin uptake site (Rattus norvegicus, UniProt P31652).
T3 construct: from tissue; host or cells: rat forebrain membranes (per the assay title)
As to the kind of experiment: Serotonin uptake binding assay: [3H]citalopram binding to rat forebrain membranes.

Data set [20] deals with maximal electroshock-induced seizures. Kind of data set: Maximal electroshock-induced seizures in rats. Format: in vivo. Conditions: rats, oral, 25 mg/kg.
The next data set relates to neuronal vacuolization. Conditions: i.p.
A further data set deals with T4, dopamine uptake site (Cavia porcellus, UniProt H0WCX4).
T4 construct: from tissue; host or cells: guinea pig striatal membranes (per the assay title)
Kind of data set: Dopamine uptake binding assay: [3H]WIN-35,428 binding to guinea pig striatal membranes.

Where [21] appears, read: 3 mg/kg i.v. (60 sec bolus injection).
Where [22] appears, read: 10 mg/kg i.v. (60 sec bolus injection).

T4 sequence (H0WCX4 1-619): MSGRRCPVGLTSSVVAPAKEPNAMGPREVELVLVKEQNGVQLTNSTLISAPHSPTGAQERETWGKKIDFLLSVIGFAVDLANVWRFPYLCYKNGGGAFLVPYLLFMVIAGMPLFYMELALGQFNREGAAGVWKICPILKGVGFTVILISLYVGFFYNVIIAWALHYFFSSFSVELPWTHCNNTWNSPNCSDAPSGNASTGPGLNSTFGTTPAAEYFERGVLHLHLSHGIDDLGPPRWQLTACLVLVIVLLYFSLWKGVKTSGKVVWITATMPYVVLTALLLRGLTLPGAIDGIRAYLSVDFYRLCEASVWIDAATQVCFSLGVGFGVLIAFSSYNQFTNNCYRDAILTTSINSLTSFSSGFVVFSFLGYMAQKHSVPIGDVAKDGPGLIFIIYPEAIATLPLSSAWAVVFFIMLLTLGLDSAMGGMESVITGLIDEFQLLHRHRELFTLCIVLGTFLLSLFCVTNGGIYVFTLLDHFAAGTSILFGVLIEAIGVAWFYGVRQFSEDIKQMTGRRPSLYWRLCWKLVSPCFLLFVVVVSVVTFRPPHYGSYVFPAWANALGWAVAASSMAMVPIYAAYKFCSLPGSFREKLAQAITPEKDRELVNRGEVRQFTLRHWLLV
T3 sequence (P31652 whole entry): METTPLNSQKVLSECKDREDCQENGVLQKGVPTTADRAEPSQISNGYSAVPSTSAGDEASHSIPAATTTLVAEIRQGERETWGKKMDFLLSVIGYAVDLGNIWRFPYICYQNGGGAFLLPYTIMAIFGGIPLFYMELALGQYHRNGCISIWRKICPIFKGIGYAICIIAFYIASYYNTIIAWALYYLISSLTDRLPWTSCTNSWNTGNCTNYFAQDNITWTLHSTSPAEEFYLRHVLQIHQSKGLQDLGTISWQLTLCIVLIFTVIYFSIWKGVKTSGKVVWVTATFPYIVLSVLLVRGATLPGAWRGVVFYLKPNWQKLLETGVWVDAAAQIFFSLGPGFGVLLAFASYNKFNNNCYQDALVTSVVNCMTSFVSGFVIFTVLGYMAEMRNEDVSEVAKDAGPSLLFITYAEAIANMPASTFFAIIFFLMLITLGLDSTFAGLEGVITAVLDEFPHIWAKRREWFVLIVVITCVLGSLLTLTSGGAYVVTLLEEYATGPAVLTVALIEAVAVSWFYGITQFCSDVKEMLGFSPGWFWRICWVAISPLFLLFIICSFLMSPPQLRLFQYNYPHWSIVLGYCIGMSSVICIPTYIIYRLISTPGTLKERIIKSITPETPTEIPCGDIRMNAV
T2 sequence (Q63380 1-617): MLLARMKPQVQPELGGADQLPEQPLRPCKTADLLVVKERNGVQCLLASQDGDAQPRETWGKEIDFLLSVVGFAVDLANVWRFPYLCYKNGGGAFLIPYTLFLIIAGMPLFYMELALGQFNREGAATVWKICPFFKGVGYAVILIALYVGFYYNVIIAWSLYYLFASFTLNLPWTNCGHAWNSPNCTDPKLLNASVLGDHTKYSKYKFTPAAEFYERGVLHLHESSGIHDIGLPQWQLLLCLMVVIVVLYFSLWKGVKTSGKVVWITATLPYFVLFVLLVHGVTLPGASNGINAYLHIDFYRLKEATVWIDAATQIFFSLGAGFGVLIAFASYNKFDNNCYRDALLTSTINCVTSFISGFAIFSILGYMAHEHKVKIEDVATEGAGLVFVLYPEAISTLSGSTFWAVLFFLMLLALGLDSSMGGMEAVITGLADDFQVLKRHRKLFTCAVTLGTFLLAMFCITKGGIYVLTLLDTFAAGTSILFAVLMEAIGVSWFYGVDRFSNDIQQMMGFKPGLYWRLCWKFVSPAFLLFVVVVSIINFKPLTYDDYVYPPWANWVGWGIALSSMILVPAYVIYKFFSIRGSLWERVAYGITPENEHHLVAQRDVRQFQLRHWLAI

For `NCCC(c1ccccc1)c1ccccc1` [Compound 19, 3,3-diphenylpropylamine], the “Suppression of NMDA Receptor-Mediated Synaptic Transmission (concentration which suppresses)” value in the data set on NMDA receptor [1] is 100 to 300 µM. In addition, the “analgesic activity in the PBQ-induced writhing assay” value in the data set with PBQ-elicited writhing is recorded as “significant analgesic activity”. Besides, in data set [2], the “no generalization to PCP at doses up to the behaviorally active dose of” value is reported as no more than 30 mg/kg. Moreover, the entries for the “Central muscarinic cholinergic receptor: percent block of [3H]QNB binding” value in data set [3] (at 0.1 μM) and in [3] (at 10 μM) were 4% at and 0.174%, respectively. Also, the IC50 was 1 to 10 µM in data set [4], 2.1 µM in data set [7], 0.435 µM in the data set on NMDA receptor [9] and 10.2 µM in the data set on L-type calcium channel. For the same compound, the “analgesic activity in the hot-plate assay” value in the data set with thermal nociception [5] is listed as “significant analgesic activity”. The same compound had a TD50 in “in vivo” of 43.8 mg/kg. Further, the motor impairment result in the data set with motor performance [6] (mice, 30 mg/kg p.o.) was “motor impairment”. In addition, in data set [8] (s.c., rats), the “without effect on blood pressure at doses up to” value is “up to 100 mg/kg”. In addition, the values for the ED50 in data set [10] (ip) and in [10] (oral (p.o.)) were 26.4 mg/kg and 35 mg/kg, respectively. The “LTP Assay (block of the induction of LTP)” value in the data set with induction of LTP is listed as “did block; also recorded: block at 100”. Further, in data set [11], the “PCP-like stereotypic behavior (hyperexcitability and head weaving)” value was “no PCP-like stereotypic behavior”.
For the compound `CC(N)CC(c1cccc(F)c1)c1cccc(F)c1` (stereo not drawn) [Compound 22, 3,3-bis(3-fluorophenyl)-1-methyl-1-propylamine], the “TD50 (inverted grid)” value in the data set with motor performance [6] (Frings mice, i.p.) is 26.8 mg/kg. Also, the IC50 was found to be 3.45 µM in [7] and 0.145 µM in the data set on NMDA receptor [9]. Besides, the values for the ED50 in the data set with sound-induced seizures (ip) and with sound-induced seizures (oral) were 4.9 mg/kg and 5.1 mg/kg, respectively. The “no significant cardiovascular activity in anesthetized rats at doses up to” value in [8] is given as no more than 4.47 mg/kg. The compound further came in with a median lethal dose (LD50) in data set [12] of 18.3 mg/kg.
In the case of `C[C@@H](CN)C(c1cccc(F)c1)c1cccc(F)c1` [Compound 33, 3,3-bis(3-fluorophenyl)-2-methyl-1-propylamine], the behavioral effects result in the data set on behavior [13] (setting [21]) was “licking of the mouth”; with behavior [13] (setting [22]), “dilated pupils, whole body tremors, incoordination, licking of the mouth, salivation, and panting”; in the data set with behavior [17] (8 mg/kg i.p.) it was “excitation, increased reactivity to touch, and hypothermia”; in the data set with behavior [17] (64 mg/kg i.p.) it was “convulsions”; in the data set with behavior [17] (2 and 4 mg/kg i.p.), “no behavioral effects”; with behavior [17] (16 and 32 mg/kg i.p.), “excitation, Straub tail, tremor, jumping, stereotypies, hypothermia, and mydriasis”. For the same compound, in the data set with behavior [17] (128 and 256 mg/kg i.p.), the behavioral effects entry is “convulsions and death”. Further, the cardiovascular activity entry in data set [14] (0.3 mg/kg i.v. (60 sec bolus injection)) is reported as “no significant cardiovascular activity”. The mean arterial pressure entry in data set [14] (1 mg/kg i.v. (60 sec bolus injection)) is “transient increases in mean arterial pressure”; in [14] (setting [21]), “larger magnitude and longer duration effects”; in [14] (setting [22]) it was “larger magnitude and longer duration effects”. Further, the heart rate result in data set [14] (setting [22]) is “a transient increase in heart rate”. Besides, the “changes in the ECG” value in data set [14] (doses up to 10 mg/kg i.v. (60 sec bolus injection)) was “no significant drug-induced changes in the ECG”. For the same compound, the motor toxicity result with motor performance [15] is on record as “no motor toxicity apparent”. Also, the “Monoamine uptake binding assays: norepinephrine uptake binding assay, percent block” value in [16] (at 0.1 μM) is recorded as 10^f2% at; in [16] (at 10 μM) it was 0.1^g54% at. Also, the “Central muscarinic cholinergic receptor: percent block of [3H]QNB binding” value is recorded as 42% at in data set [3] (at 0.1 μM) and 0.199% at in data set [3] (at 10 μM). The “analgesic activity, rat 52° C. hot plate test” value in the data set with thermal nociception [18] was “no significant analgesic activity”. Further, the “analgesic activity, chronic neuropathic pain” value in the data set on chronic neuropathic pain (i.p., doses of 3-10 mg/kg) is reported as “significant analgesic activity”; in the data set on chronic neuropathic pain (i.th., doses ranging from 15 to 80 μg), “significant analgesic activity”. Further, the “analgesic activity, rat 48° C. tail flick test” value in the data set on thermal nociception [19] is “no significant analgesic activity”. Also, the “neuroprotectant activity in a rat model of focal ischemic stroke” value in the data set with focal ischemic stroke is recorded as “significant neuroprotectant activity”. Moreover, the “Monoamine uptake binding assays: serotonin uptake binding assay, percent block” value is 10^g14% at at serotonin uptake site (at 0.1 μM) and 0.1^h89% at at serotonin uptake site (at 10 μM). Also, the IC50 is greater than 10 µM in data set [4], 0.181 µM in [7], 0.06 µM in the data set with NMDA receptor [9] and 1.6 µM with L-type calcium channel. The TD50 in the data set “in vivo” (Frings) stood at 27.8 mg/kg. Further, the “anticonvulsant activity against maximal electroshock-induced seizures” value in data set [20] is on record as “significant anticonvulsant activity”. Besides, the “dose without neuronal vacuolization” value in the data set on neuronal vacuolization is listed as 30 mg/kg. The ED50 with sound-induced seizures (ip) stood at 4.6 mg/kg. The “no significant cardiovascular activity in anesthetized rats at doses up to” value in data set [8] is recorded as “up to 3 mg/kg”. In addition, the “Monoamine uptake binding assays: dopamine uptake binding assay, percent block” value on dopamine uptake site (at 0.1 μM) is given as 23% at; at dopamine uptake site (at 10 μM), 0.1^f86% at.
